# Data published in ChEMBL document CHEMBL1152405, “Bis-anthracenyl isoxazolyl amides have enhanced anticancer activity” (Bioorg Med Chem Lett, 2009).
# Assays:
# SNB-19 [1] = assay: Antitumor activity against human SNB19 cells after 24 hrs; type: functional, cell-based; conditions: SNB-19, 24 h
# A549 = assay: Growth inhibition of human A549 cells at 10 uM after 24 hrs by MTT assay relative to control; type: functional; design: scale not given: the % may be the effect or the level left
# HOP-92 [2] = assay: Growth inhibition of human HOP92 cells at 10 uM after 24 hrs by MTT assay relative to control; type: functional; design: scale not given: the % may be the effect or the level left
# NCI-H460 [3] = assay: Growth inhibition of human NCI-H460 cells at 10 uM after 24 hrs by MTT assay relative to control; type: functional; design: scale not given: the % may be the effect or the level left
# NCI-H522 [4] = assay: Growth inhibition of human NCI-H522 cells at 10 uM after 24 hrs by MTT assay relative to control; type: functional; design: scale not given: the % may be the effect or the level left
# KM12 [5] = assay: Growth inhibition of human KM12 cells at 10 uM after 24 hrs by MTT assay relative to control; type: functional; design: scale not given: the % may be the effect or the level left
# SW-620 = assay: Growth inhibition of human SW620 cells at 10 uM after 24 hrs by MTT assay relative to control; type: functional; design: scale not given: the % may be the effect or the level left
# BT-549 = assay: Growth inhibition of human BT549 cells at 10 uM after 24 hrs by MTT assay relative to control; type: functional; design: scale not given: the % may be the effect or the level left
# [6] = Growth inhibition of human Hs 578T cells at 10 uM after 24 hrs by MTT assay relative to control; type: functional; design: scale not given: the % may be the effect or the level left
# OVCAR-4 = assay: Growth inhibition of human OVCAR4 cells at 10 uM after 24 hrs by MTT assay relative to control; type: functional; design: scale not given: the % may be the effect or the level left
# SK-OV-3 = assay: Growth inhibition of human SKOV3 cells at 10 uM after 24 hrs by MTT assay relative to control; type: functional; design: scale not given: the % may be the effect or the level left
# K562 = assay: Growth inhibition of human K562 cells at 10 uM after 24 hrs by MTT assay relative to control; type: functional; design: scale not given: the % may be the effect or the level left
# CAKI-1 [7] = assay: Growth inhibition of human Caki1 cells at 10 uM after 24 hrs by MTT assay relative to control; type: functional; design: scale not given: the % may be the effect or the level left
# Malme-3M = assay: Growth inhibition of human MALME-3M cells at 10 uM after 24 hrs by MTT assay relative to control; type: functional; design: scale not given: the % may be the effect or the level left
# SK-MEL-2 [8] = assay: Growth inhibition of human SK-MEL-2 cells at 10 uM after 24 hrs by MTT assay relative to control; type: functional; design: scale not given: the % may be the effect or the level left
# DU-145 [9] = assay: Growth inhibition of human DU145 cells at 10 uM after 24 hrs by MTT assay relative to control; type: functional; design: scale not given: the % may be the effect or the level left
# SF-268 = assay: Growth inhibition of human SF268 cells at 10 uM after 24 hrs by MTT assay relative to control; type: functional; design: scale not given: the % may be the effect or the level left
# SNB-19 [10] = assay: Growth inhibition of human SNB19 cells at 10 uM after 24 hrs by MTT assay relative to control; type: functional; design: scale not given: the % may be the effect or the level left
# HL-60(TB) = assay: Growth inhibition of human HL-60(TB) cells after 24 hrs by MTT assay; type: functional; conditions: HL-60, 24 h
# HOP-92 [11] = assay: Growth inhibition of human HOP92 cells after 24 hrs by MTT assay; type: functional; conditions: HOP-92, 24 h
# NCI-H226 = assay: Growth inhibition of human NCI-H226 cells after 24 hrs by MTT assay; type: functional; conditions: NCI-H226, 24 h
# NCI-H23 = assay: Growth inhibition of human NCI-H23 cells after 24 hrs by MTT assay; type: functional; conditions: NCI-H23, 24 h
# NCI-H460 [12] = assay: Growth inhibition of human NCI-H460 cells after 24 hrs by MTT assay; type: functional; conditions: NCI-H460, 24 h
# NCI-H522 [13] = assay: Growth inhibition of human NCI-H522 cells after 24 hrs by MTT assay; type: functional; conditions: NCI-H522, 24 h
# HT-29 = assay: Growth inhibition of human HT-29 cells after 24 hrs by MTT assay; type: functional; conditions: HT-29, 24 h
# KM12 [14] = assay: Growth inhibition of human KM12 cells after 24 hrs by MTT assay; type: functional; conditions: KM12, 24 h
# U-251 = assay: Growth inhibition of human U251 cells after 24 hrs by MTT assay; type: functional; conditions: U-251, 24 h
# M14 = assay: Growth inhibition of human M14 cells after 24 hrs by MTT assay; type: functional; conditions: M14, 24 h
# SK-MEL-2 [15] = assay: Growth inhibition of human SK-MEL-2 cells after 24 hrs by MTT assay; type: functional; conditions: SK-MEL-2, 24 h
# NCI/ADR-RES = assay: Growth inhibition of human NCI/ADR-RES cells after 24 hrs by MTT assay; type: functional
# ACHN = assay: Growth inhibition of human ACHN cells after 24 hrs by MTT assay; type: functional
# CAKI-1 [16] = assay: Growth inhibition of human Caki1 cells after 24 hrs by MTT assay; type: functional; conditions: CAKI-1, 24 h
# UO-31 = assay: Growth inhibition of human UO31 cells after 24 hrs by MTT assay; type: functional; conditions: UO-31, 24 h
# DU-145 [17] = assay: Growth inhibition of human DU145 cells after 24 hrs by MTT assay; type: functional; conditions: DU-145, 24 h
# MDA-MB-231 = assay: Growth inhibition of human MDA-MB-231 cells after 24 hrs by MTT assay; type: functional; conditions: MDA-MB-231, 24 h
# T47D = assay: Growth inhibition of human T47D cells after 24 hrs by MTT assay; type: functional
# [18] = read-out: LC50 (the source's name)
# [19] = read-out: pLC50 (the source's name) (converted)
smiles,measurement,setting,value
Cc1onc(-c2c3ccccc3c(Cl)c3ccccc23)c1C(=O)Nc1cc(C(=O)NCCCN(C)CCCNC(=O)c2cc(NC(=O)c3c(-c4c5ccccc5c(Cl)c5ccccc45)noc3C)cn2C)n(C)c1,IC50,SNB-19 [1],4.75 µM
same,Activity,A549,-59.15%
same,Activity,HOP-92 [2],-16.66%
same,Activity,NCI-H460 [3],-100%
same,Activity,NCI-H522 [4],-85.33%
same,Activity,KM12 [5],-100%
same,Activity,SW-620,-100%
same,Activity,BT-549,-49.26%
same,Activity,[6],-71.85%
same,Activity,OVCAR-4,-100%
same,Activity,SK-OV-3,-100%
same,Activity,K562,-100%
same,Activity,CAKI-1 [7],-74.88%
same,Activity,Malme-3M,-86.28%
same,Activity,SK-MEL-2 [8],-77.54%
same,Activity,DU-145 [9],-100%
same,Activity,SF-268,-100%
same,Activity,SNB-19 [10],-100%
same,TGI,HL-60(TB),8.3 µM
same,GI50,HL-60(TB); read-out: GI50,1.61 µM
same,CC50,HL-60(TB); [18],42 µM
same,GI50,HL-60(TB); read-out: pGI50 (converted),1.62 µM
same,CC50,HL-60(TB); [19],41.7 µM
same,TGI,HOP-92 [11],2.48 µM
same,GI50,HOP-92 [11]; read-out: GI50,1.22 µM
same,CC50,HOP-92 [11]; [18],5.03 µM
same,GI50,HOP-92 [11]; read-out: pGI50 (converted),1.23 µM
same,CC50,HOP-92 [11]; [19],5.01 µM
same,TGI,NCI-H226,29.4 µM
same,GI50,NCI-H226; read-out: GI50,3.15 µM
same,CC50,NCI-H226; [18],100 µM
same,GI50,NCI-H226; read-out: pGI50 (converted),3.16 µM
same,CC50,NCI-H226; [19],> 100 µM
same,TGI,NCI-H23,3.01 µM
same,GI50,NCI-H23; read-out: GI50,1.54 µM
same,CC50,NCI-H23; [18],5.85 µM
same,GI50,NCI-H23; read-out: pGI50 (converted),1.55 µM
same,CC50,NCI-H23; [19],5.89 µM
same,TGI,NCI-H460 [12],2.23 µM
same,GI50,NCI-H460 [12]; read-out: GI50,1.05 µM
same,CC50,NCI-H460 [12]; [18],4.72 µM
same,GI50,NCI-H460 [12]; read-out: pGI50 (converted),1.05 µM
same,CC50,NCI-H460 [12]; [19],4.68 µM
same,TGI,NCI-H522 [13],3.51 µM
same,GI50,NCI-H522 [13]; read-out: GI50,1.59 µM
same,GI50,NCI-H522 [13]; read-out: pGI50 (converted),1.58 µM
same,TGI,HT-29,2.47 µM
same,GI50,HT-29; read-out: GI50,1.2 µM
same,GI50,HT-29; read-out: pGI50 (converted),1.2 µM
same,TGI,KM12 [14],2.63 µM
same,GI50,KM12 [14]; read-out: GI50,1.35 µM
same,GI50,KM12 [14]; read-out: pGI50 (converted),1.35 µM
same,GI50,U-251; read-out: GI50,1.5 µM
same,GI50,U-251; read-out: pGI50 (converted),1.51 µM
same,TGI,M14,2.8 µM
same,GI50,M14; read-out: GI50,1.48 µM
same,CC50,M14; [18],5.29 µM
same,GI50,M14; read-out: pGI50 (converted),1.48 µM
same,CC50,M14; [19],5.25 µM
same,TGI,SK-MEL-2 [15],4.1 µM
same,GI50,SK-MEL-2 [15]; read-out: GI50,2.08 µM
same,GI50,SK-MEL-2 [15]; read-out: pGI50 (converted),2.09 µM
same,TGI,NCI/ADR-RES,> 100 µM
same,GI50,NCI/ADR-RES; read-out: GI50,13.2 µM
same,CC50,NCI/ADR-RES; [18],100 µM
same,GI50,NCI/ADR-RES; read-out: pGI50 (converted),13.2 µM
same,CC50,NCI/ADR-RES; [19],> 100 µM
same,TGI,ACHN,3.04 µM
same,GI50,ACHN; read-out: GI50,1.63 µM
same,GI50,ACHN; read-out: pGI50 (converted),1.62 µM
same,TGI,CAKI-1 [16],5.85 µM
same,GI50,CAKI-1 [16]; read-out: GI50,2.4 µM
same,CC50,CAKI-1 [16]; [18],31.3 µM
same,GI50,CAKI-1 [16]; read-out: pGI50 (converted),2.4 µM
same,CC50,CAKI-1 [16]; [19],31.6 µM
same,TGI,UO-31,3.4 µM
same,GI50,UO-31; read-out: GI50,1.78 µM
same,GI50,UO-31; read-out: pGI50 (converted),1.78 µM
same,TGI,DU-145 [17],2.6 µM
same,GI50,DU-145 [17]; read-out: GI50,1.33 µM
same,CC50,DU-145 [17]; [18],5.1 µM
same,GI50,DU-145 [17]; read-out: pGI50 (converted),1.32 µM
same,CC50,DU-145 [17]; [19],5.13 µM
same,TGI,MDA-MB-231,2.76 µM
same,GI50,MDA-MB-231; read-out: GI50,1.37 µM
same,GI50,MDA-MB-231; read-out: pGI50 (converted),1.38 µM
same,TGI,T47D,5.08 µM
same,GI50,T47D; read-out: GI50,1.69 µM
same,CC50,T47D; [18],24.5 µM
same,GI50,T47D; read-out: pGI50 (converted),1.7 µM
same,CC50,T47D; [19],24.5 µM
